Measured values taken from patent US10975033B2, “Methods for treating inflammation and hypertension with γ-ketoaldehyde skavengers” (Vanderbilt University, priority 2011, dated 2021).

Legend:
[1] = system: carrageenin-induced paw edema; assay: Carrageenin-induced paw edema rat model; type: in vivo; conditions: for mean reduction in edema: 3 hrs after injection of carrageenin, FIG. 7
Source text: As indicated above, one embodiment of the present invention is the use of salicylamine to treat inflammation. […] The carrageenin-induced paw edema rat model has been probably the most utilized animal model to screen for potency of NSAIDs and other antiinflammatory compounds to inhibit inflammation for decades. For example, see Proc Soc Exp Biol Med 111:544 in 1962 by Winter C A et. al., entitled: “Carrageenin-induced edema of the hind paw of the rat as an assay for antiinflammatory drugs”. Importantly, it has been shown that this model is one of the most robust predictors of clinical potency of NSAIDs^54.
Our initial experiments tested the ability of a single dose of salicylamine (200 mg/kg), administered intraperitoneally, to reduce paw edema at various time points. Carrageenan (100 μl of a 1% solution in saline) was injected into the hind right footpad. Footpad volume was measured in a water displacement plethysmometer before injection of carrageenin and at 2 hr, 3 hr, and 4 hr post-carrageenin. Edema was calculated as footpad volume change (ml) as a percentage of original paw volume for each individual animal.
The efficacy an analog of salicylamine, 5-methyl-salicylamine, to inhibit carrageenin-induced paw edema was accessed at 3 hrs after injection of carrageenin at two doses, 200 and 100 mg/kg ip (FIG. 7).

[2] = Pharmacokinetics of salicylamine; type: in vivo
[3] = system: neutrophil cell counts in lung bronchoalveolar lavage fluid; assay: Neutrophil cell counts in lung bronchoalveolar lavage fluid of LPS-injected mice; type: in vivo; conditions: ip at 1 hr, 3 hrs, 5 hrs after LPS; determined 8 hrs after LPS; FIG. 11
Experimental: An in vivo experiment was performed to explore whether treatment with salicylamine would down regulate the activity of NF-kB in animals injected with LPS. The animals we used were mice with a luciferase NF-kB reporter gene developed by Dr. Timothy Blackwell mentioned previously. LPS was injected into mice and salicylamine was injected intraperitoneally at 1 hr, 3 hrs, and 5 hrs after the LPS injection. Lung NF-kB luciferase assay and neutrophil cell counts in lung bronchoalveolar lavage fluid (BAL) were then determined 8 hrs after the LPS injection. There was a reduction in both (a) activity of NF-kB (FIG. 10) (b) and neutrophil cell counts (FIG. 11), both of which are indicative of a pronounced anti-inflammatory effect of salicylamine treatment in these animals.

[4] = system: cells exposed to a lethal concentration of the oxidant t-butylhydroperoxide; assay: Protection of cells against a lethal concentration of t-butylhydroperoxide (FIG. 5); type: cell-based
Source text: One example is shown in FIG. 5, where cells are exposed to a lethal concentration of the oxidant t-butylhydroperoxide. […] Accordingly, we suspected that the γ-KAs generated by the COX pathways would likely be very pro-inflammatory, which might explain the underlying mechanism by which NSAID's exert some their anti-inflammatory effects.

[5] = system: COX enzymes; conditions: cited from earlier work
[6] = Reactivity of scavenger with γ-KAs relative to lysine; conditions: more reactive than lysine
Source text: Other embodiments of the present invention include the use of analogs of pyridoxamine that are less polar but retain the critical molecular structure of this molecule responsible for intercepting γ-KAs^49. One example is 2-hydroxy-benzylamine (salicylamine, SA) which is 980 times more reactive than lysine with γ-KAs.
It is important to emphasize that the use of salicylamine is one example of the present invention. Other embodiments include compounds that intercept γ-KA scavengers on various biological processes, their analogs and salt forms thereof. Different non-limiting examples of compounds of the present invention are listed below, which intercept γ-KAs with varying degrees of hydrophilicity. Additionally, to solubilize the more hydrophobic compounds, they have been converted them to an acetate salt. These react with γ-KAs in vitro at a rate more than 2 orders of magnitude greater than the potency of the reaction of γ-KAs with the ε-amine of lysine^49. […] Included are analogs, salts, and pharmaceutical compositions comprising compounds that intercept γ-KA scavengers on various biological processes.

[7] = system: NF-κB; assay: LPS-induced NF-κB expression in NF-κB reporter macrophages (luciferase reporter assay); type: cell-based; conditions: varying concentrations, FIG. 9
Source text: The effect of γ-KAs and salicylamine on induction of NF-κB was explored using a novel luciferase reporter assay to quantitatively monitor the induction of expression of NF-κB both in vitro in cells and in vivo^55; 56. NF-κB is required for maximal induction of many cytokines which are thought to be important in the generation of the acute inflammatory responses^57. Accordingly, the downstream effects of an agent that suppresses the induction of NF-κB would be a reduction in the level of inflammation. The first question we asked was does exposure of cells to γ-KAs induce the expression of NF-κB using the luciferase reporter assay mentioned above. […] The abbreviation RLU in this figure stands for Relative Light Units that were measured by luciferase assay.
Another embodiment of the present invention is treatment with varying concentrations of salicylamine (SA) would suppress lipopolysaccharide (LPS) induced expression of NF-κB in NF-κB reporter macrophages.

[8] = system: hAPO4 mice; assay: Cognitive deficits in hAPO4 mouse model of human Alzheimer's disease; type: in vivo
Source text: The present inventors have shown that levels of γ-KA adducts are increased in disease affected areas of whole brain tissue from patients with Alzheimer's disease. […] The present inventors accessed the ability of the γ-KA scavenger salicylamine to prevent the development of cognitive abnormalities in an animal model of human Alzheimer's disease, hAPO4 mice.

SMILES	mean reduction in edema ([1]; 100 mg/kg ip)	mean reduction in edema ([1]; 200 mg/kg ip)	plasma concentrations compared with tissue concentrations ([2]; in vivo)	half-life ([2]; plasma, read-out: half life (t1/2) in plasma)	neutrophil cell counts in BAL [3]	protection against cell death [4]	inhibition of COX (cyclooxygenase) enzymes [5]	inhibition of carrageenin-induced paw edema ([1]; single dose 200 mg/kg intraperitoneally, 2 hr, 3 hr, 4 hr post-carrageenin, FIG. 6)	persistence of decrease in paw edema after injection of carrageenin ([1]; single intraperitoneal injection, 200 mg/kg)	reactivity with γ-KAs relative to lysine [6]	LPS induced expression of NF-κB [7]	prevention of development of cognitive deficits [8]
Cc1ccc(O)c(CN)c1 [5-methyl-salicylamine]	29%	60%										
NCc1ccccc1O [salicylamine, 2-hydroxy-benzylamine]			lower than tissue concentrations	~1 h	reduction	almost completely protected against cell death	None of the compound listed below, including salicylamine, inhibit cyclooxygenase enzymes	marked inhibition	at least 4 hrs	980 times	concentration dependent stepwise reduction	almost completely prevented
